Assay results from publication PMC10535389, “Can Pharmaceutical Excipients Threaten the Aquatic Environment? A Risk Assessment Based on the Microtox® Biotest” (Molecules, 2023).
In brackets after ≈: the same amount, converted by molar mass. Several values for one entry are separate records, joined by “and”; a condition that tells them apart may be missing. Identical values can stand only once. Counter-ions that a name gives are not always drawn. Like-named read-outs stand apart in the source and are kept apart here. Marks after values point to notes of the source that are not given here.

Assays:
[1] = test system: Aliivibrio fischeri (strain NRRL B-11177); design: method as in earlier work; conditions: ref [10] (Turek et al., J. Haz. Mat. 399 (2020) 122839), cited from earlier work; for EC50 5 min: 5 min of incubation
[2] = pH values of samples used in Microtox test; format: physicochemical; conditions: sample used in Microtox test
[3] = test system: Aliivibrio fischeri (strain NRRL B-11177); experiment: modified Microtox Basic Solid Phase Test (bioluminescence inhibition); format: cell-based; conditions: for EC50: Aliivibrio fischeri
Experimental: (§1) The bioluminescent marine bacterium Aliivibrio fischeri (strain NRRL B-11177) was used to evaluate the acute toxicity of individual excipients, as well as the API–excipient and excipient–excipient mixtures (Figure 1). The inhibition of bioluminescence was measured using the Microtox® Model 500 Analyzer (Modern Water Inc., New Castle, DE, USA). The modified Microtox® Basic Solid Phase Test protocol was applied, which was described in detail in our previous work; a scheme illustrating the course of the ecotoxicological study is shown in Figure 4. The bioluminescence inhibition of A. fischeri was measured after 5, 15, and 30 min of exposure of the bacterium to each sample and then compared with the light output of a control sample. […] Software™.

[4] = as above; format: cell-based, Aliivibrio fischeri; conditions: Aliivibrio fischeri, Toxicity Category (Based on EC50, 30 min)
Experimental: as §1

[5] = test system: various aquatic organisms; conditions: ref [16, 17, 18, 19, 20]; cited from earlier work
[6] = NRRLB11177, 0.5 h, 30 min of exposure, 95% confidence interval in brackets, read-out: EC50 30 min
[7] = NRRLB11177, 5 min, read-out: EC50 5 min, 5 min of exposure, 95% confidence interval in brackets
[8] = NRRLB11177, 0.25 h, 15 min of exposure, 95% confidence interval in brackets, read-out: EC50 15 min
[9] = 30 min of exposure, 95% confidence interval in brackets
[10] = 5 min of exposure, 95% confidence interval in brackets
[11] = 15 min of exposure, 95% confidence interval in brackets

| Molecule | EC50 5 min [1] | EC50 15 min [1] | pH [2] | EC50 [3, 6] | EC50 [3, 7] | EC50 [3, 8] | EC50 at 30 min [4] | EC50 30 min [3, 9] | further results |
| --- | --- | --- | --- | --- | --- | --- | --- | --- | --- |
| CCCCc1nc(Cl)c(CO)n1Cc1ccc(-c2ccccc2-c2nn[nH]n2)cc1 [LOS-K, Losartan potassium, reference compound] | 583.88 mg/L | 659.02 mg/L | 7.750 | 277 mg/L |  |  |  |  |  |
| OC[C@H]1O[C@@H](O[C@H]2[C@H](O)[C@@H](O)[C@@H](O)O[C@@H]2CO)[C@H](O)[C@@H](O)[C@H]1O [Lactose monohydrate] |  |  | 5.113 |  | 11700 mg/L | 14000 mg/L | > 100 mg/L |  | EC50 ([3]; NRRLB11177, 0.5 h, 30 min of exposure, EC50 calculated from extrapolated data, read-out: EC50 30 min): 16400 mg/L |
| OC[C@@H](O)[C@@H](O)[C@H](O)[C@H](O)CO [Mannitol] |  |  | 6.390 | 4250 mg/L (≈ 23300 µM) | 12600 mg/L (≈ 69000 µM) | 5400 mg/L (≈ 29700 µM) | > 100 mg/L |  |  |
| CNC[C@H](O)[C@@H](O)[C@H](O)[C@H](O)CO [Meglumine] |  |  | 10.830 and ~11 | 10 to 100 mg/L | 28.6 mg/L | 19.7 mg/L | 10 to 100 mg/L | 18.05 (7.237–45.02) 0.7516 mg/L |  |
| CCCCCCCCCCCCOS(=O)(=O)O [Sodium lauryl sulfate (SLS), Sodium lauryl sulfate] |  |  | 6.779 | < 1 mg/L | 1.37 mg/L | 0.8 mg/L | < 1 mg/L | 0.5544 (0.1138–2.702) 0.6931 mg/L | LC50 (lethal concentration) [5]: 1 to 13.9 mg/L |
| CCCCCCCCCCCCCCCCCCOC(=O)/C=C/C(=O)[O-].[Na+] [Sodium stearyl fumarate] |  |  |  |  |  |  |  |  | EC50 5 min ([3]; 5 min, value calculated using two points, 95% confidence interval and R^2 could not be determined): 56,456 ^[b] mg/L; EC50 15 min ([3]; 15 min of exposure, EC50 calculated from extrapolated data): 12,815 ^[a] (38.84–4,457,999) 0.9221 mg/L; EC50 30 min ([3]; 30 min of exposure, EC50 calculated from extrapolated data): 80,534 ^[a] (2479–2,616,211) 0.8896 mg/L |
| OC[C@@H](O)[C@@H](O)[C@H](O)[C@@H](O)CO [Sorbitol] |  |  | 7.446 |  |  |  | > 100 mg/L | Non-toxic in tested concentration, hormesis | EC50 5 min [3, 10]: Non-toxic in tested concentration, hormesis; EC50 15 min [3, 11]: Non-toxic in tested concentration, hormesis; EC50 30 min ([3]; 30 min of exposure, 95% confidence interval in brackets, listed as sorbitol): completely non-toxic at the tested concentration |
| CCCc1nc2c(C)cc(-c3nc4ccccc4n3C)cc2n1Cc1ccc(-c2ccccc2C(=O)O)cc1 [TEL, Telmisartan, reference compound] | 196.52 mg/L (≈ 382 µM) | 99.70 mg/L (≈ 194 µM) | 8.036 | 77.3 mg/L (≈ 150 µM) |  |  |  |  |  |
| CCCCC(=O)N(Cc1ccc(-c2ccccc2-c2nnn[nH]2)cc1)[C@H](C(=O)O)C(C)C [VAL, Valsartan, reference compound] | 143.20 mg/L (≈ 329 µM) | 234.83 mg/L (≈ 539 µM) | 4.970 | 150 mg/L (≈ 346 µM) |  |  |  |  |  |
| Magnesium carbonate (heavy) |  |  | 10.257 |  |  |  |  | 65.60 (44.19–97.37) 0.9738 mg/L | EC50 5 min [3, 10]: 109.8 (55.61–216.6) 0.9360 mg/L; EC50 15 min [3, 11]: 86.42 (58.99–126.6) 0.9678 mg/L; EC50 30 min ([3]; 30 min of exposure, 95% confidence interval in brackets, listed as magnesium carbonate): 10 to 100 mg/L; Toxicity Category (Based on EC50, 30 min) ([3]; GHS acute toxicity categories [11]): III ((III) harmful, 10 < EC50 < 100 mg/L) |
